Measured values as given in patent publication US20240400561A1, “NOVEL SUBSTITUTED SULFONYLUREA COMPOUNDS AS INHIBITORS OF INTERLEUKIN-1 ACTIVITY” (Viva Star Biosciences (Suzhou) Co., Ltd., priority 2021, published 2024).

Target: T1, NLRP3 (Homo sapiens, UniProt Q96P20)
T1 construct: Seed THP-1 cells (5.56*10^5 cells/mL) containing 1.0 ug/mL LPS; endogenous in cells; host or cells: THP-1 cells
Experiment: THP-1 cell assay (LPS priming, nigericin), IL1β release by HTRF; called pyroptosis assay, THP IC50
Format: cell-based
Details: NLRP3 inhibitory activity; THP-1 cells, 1.0 ug/mL LPS, compound 3 hrs, nigericin 5 uM 1 hr, IL1β in supernatant
Procedure: The following method was used for compound screening. • 1. Seed THP-1 cells (5.56*10^5 cells/mL) containing 1.0 ug/mL LPS (SIGMA, L6529) in 45 uL RPMI 1640 medium (without FBS) into 384-well plate (Thermo Scientific, 164688). • 2. Add 5 uL compound (10 doses starting from 5 uM, 1:3 dilution) or vehicle (0.05% DMSO in medium) to the appropriate wells. • 3. Centrifuge the plates at 1000 rpm for 2 mins and incubate for 3 hrs at 37° C., 5% CO2. • 4. Add 5 uL nigericin (MEC, HY-100381) (final conc. 5 uM) to sample wells and positive control wells; add 5 uL RPMI 1640 medium to negative control wells. • 5. Centrifuge plates at 1000 rpm for 2 mins and incubate for 1 hr at 37° C., 5% CO2. • 6. At the end of the incubation period, centrifuge plates at 1000 rpm for 6 mins and transfer 8 uL supernatant into 384-well assay plates (PerkinElmer, 6008280). • 7. Add 8 ul RPMI 1640 medium into each well and spin down for 10 secs. • 8. Prepare the standard solutions and pre-mixed IL1β antibody solution of Human […] kits (PerkinElmer, 62HIL1BPEH) according to the instruction. • 9. Add 16 uL standard solutions into clear wells of 384-well assay plates. • 10. Add 4 uL pre-mixed IL1β antibody solution to all wells including sample wells, positive control wells, negative control wells and standard solutions wells. • 11. Seal the plates, spin down for 10 secs, incubation for overnight at RT and read on an HTRF® compatible reader (BMG LABTECH, PHERAstar FS). • 12. The concentrations of IL1β for treated wells are calculated by the standard curve. • 13. The IC50 data is fitted to a non-liner regression equation (log inhibitor vs. response—Variable slope four parameters)).

T1 sequence (Q96P20 whole entry): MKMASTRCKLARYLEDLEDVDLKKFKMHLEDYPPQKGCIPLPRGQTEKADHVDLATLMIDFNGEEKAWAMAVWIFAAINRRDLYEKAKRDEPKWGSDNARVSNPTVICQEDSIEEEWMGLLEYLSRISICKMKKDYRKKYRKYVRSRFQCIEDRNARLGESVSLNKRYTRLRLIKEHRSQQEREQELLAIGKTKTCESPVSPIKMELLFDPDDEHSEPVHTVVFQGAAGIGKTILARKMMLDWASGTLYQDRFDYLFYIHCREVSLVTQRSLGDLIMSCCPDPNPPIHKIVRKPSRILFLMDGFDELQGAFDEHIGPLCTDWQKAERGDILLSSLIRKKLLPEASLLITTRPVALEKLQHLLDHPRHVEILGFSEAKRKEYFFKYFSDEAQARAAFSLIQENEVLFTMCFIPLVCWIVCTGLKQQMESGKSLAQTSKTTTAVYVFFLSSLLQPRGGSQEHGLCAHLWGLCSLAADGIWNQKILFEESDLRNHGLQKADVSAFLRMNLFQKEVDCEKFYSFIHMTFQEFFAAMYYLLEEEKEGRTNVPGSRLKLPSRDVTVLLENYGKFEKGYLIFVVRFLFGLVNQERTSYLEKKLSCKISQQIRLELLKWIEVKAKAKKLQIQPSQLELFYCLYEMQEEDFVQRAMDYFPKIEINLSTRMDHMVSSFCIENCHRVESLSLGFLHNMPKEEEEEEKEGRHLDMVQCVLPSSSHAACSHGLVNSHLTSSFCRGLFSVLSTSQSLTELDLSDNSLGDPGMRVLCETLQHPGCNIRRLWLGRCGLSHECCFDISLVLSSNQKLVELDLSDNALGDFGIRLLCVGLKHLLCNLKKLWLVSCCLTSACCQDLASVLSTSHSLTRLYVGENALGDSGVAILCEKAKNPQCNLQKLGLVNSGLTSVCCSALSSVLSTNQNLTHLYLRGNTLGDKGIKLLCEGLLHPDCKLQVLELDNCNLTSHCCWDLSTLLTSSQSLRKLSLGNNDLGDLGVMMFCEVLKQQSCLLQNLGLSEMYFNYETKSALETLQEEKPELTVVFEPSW

Q: With Cc1cc2c(c(NC(=O)NS(=O)(=O)c3ccn([C@@H]4CC[C@@H]4O)n3)c1-c1ccn3nccc3c1)CCC2 (relative stereo) [Example 85, 1-(rel-(1R,2S)-2-hydroxycyclobutyl)-N-((6-methyl-5-(pyrazolo[1,5-a]pyridin-5-yl)-2,3-dihydro-1H-inden-4-yl)carbamoyl)-1H-pyrazole-3-sulfonamide] as the compound, how does the IC50 read?
A: > 2000 nM

Q: Cc1cc2c(c(NC(=O)NS(=O)(=O)c3ccn(C4CC4)n3)c1-c1ccn3nccc3c1)CCC2 [Example 1, 1-cyclopropyl-N-((6-methyl-5-(pyrazolo[1,5-a]pyridin-5-yl)-2,3-dihydro-1H-inden-4-yl)carbamoyl)-1H-pyrazole-3-sulfonamide] was tested. Which IC50 did it give?
A: ≤ 30 nM

Q: CC(C)(O)c1csc(S(=O)(=O)NC(=O)Nc2c3c(cc(C#N)c2-c2ccn4cncc4c2)CCC3)c1 [Example 2, N-((6-cyano-5-(imidazo[1,5-a]pyridin-7-yl)-2,3-dihydro-1H-inden-4-yl)carbamoyl)-4-(2-hydroxypropan-2-yl)thiophene-2-sulfonamide] was tested. Which IC50 did it give?
A: ≤ 30 nM

Q: For Cc1cc2c(c(NC(=O)NS(=O)(=O)C3CC(OC4CC4)C3)c1-c1ccnc3[nH]ccc13)CCC2 (stereo not drawn) [Example 3, 3-cyclopropoxy-N-((6-methyl-5-(1H-pyrrolo[2,3-b]pyridin-4-yl)-2,3-dihydro-1H-inden-4-yl)carbamoyl)cyclobutane-1-sulfonamide], which IC50 is on record?
A: 30 to 300 nM

Q: With Cn1ccc2c(-c3ccc4c(c3NC(=O)NS(=O)(=O)c3cnn(CC5CC5)c3)CCC4)ccnc21 [Example 4, 1-(cyclopropylmethyl)-N-((5-(1-methyl-1H-pyrrolo[2,3-b]pyridin-4-yl)-2,3-dihydro-1H-inden-4-yl)carbamoyl)-1H-pyrazole-4-sulfonamide] as the compound, how does the IC50 read?
A: 30 to 300 nM

Q: O=C(Nc1c(-c2ccnc3[nH]ccc23)ccc2c1CCC2)NS(=O)(=O)c1cnn(CC2CC2)c1 [Example 5, N-((5-(1H-pyrrolo[2,3-b]pyridin-4-yl)-2,3-dihydro-1H-inden-4-yl)carbamoyl)-1-(cyclopropylmethyl)-1H-pyrazole-4-sulfonamide] was tested. Which IC50 did it give?
A: ≤ 30 nM

Q: Cc1cc2c(c(NC(=O)NS(=O)(=O)c3cnn(CC4CC4)c3)c1-c1ccn3nccc3c1)CCC2 [Example 6, 1-(cyclopropylmethyl)-N-((6-methyl-5-(pyrazolo[1,5-a]pyridin-5-yl)-2,3-dihydro-1H-inden-4-yl)carbamoyl)-1H-pyrazole-4-sulfonamide] was tested. Which IC50 did it give?
A: ≤ 30 nM

Q: With O=C(Nc1c(-c2ccn3nccc3c2)ccc2c1CCC2)NS(=O)(=O)c1cnn(CC2CC2)c1 [Example 7, 1-(cyclopropylmethyl)-N-((5-(pyrazolo[1,5-a]pyridin-5-yl)-2,3-dihydro-1H-inden-4-yl)carbamoyl)-1H-pyrazole-4-sulfonamide] as the compound, how does the IC50 read?
A: ≤ 30 nM

Q: Cc1cc2c(c(NC(=O)NS(=O)(=O)c3cnn(CC4CC4)c3)c1-c1ccnc3[nH]ccc13)CCC2 [Example 8, 1-(cyclopropylmethyl)-N-((6-methyl-5-(1H-pyrrolo[2,3-b]pyridin-4-yl)-2,3-dihydro-1H-inden-4-yl)carbamoyl)-1H-pyrazole-4-sulfonamide] was tested. Which IC50 did it give?
A: ≤ 30 nM

Q: Cc1cc2c(c(NC(=O)NS(=O)(=O)c3ccn(CC4CC4)n3)c1-c1ccn3nccc3c1)CCC2 [Example 10, 1-(cyclopropylmethyl)-N-((6-methyl-5-(pyrazolo[1,5-a]pyridin-5-yl)-2,3-dihydro-1H-inden-4-yl)carbamoyl)-1H-pyrazole-3-sulfonamide] was tested. Which IC50 did it give?
A: ≤ 30 nM

Q: Which IC50 does the source give for Cc1cc2c(c(NC(=O)NS(=O)(=O)c3ccn(CC4CCC4)n3)c1-c1ccn3nccc3c1)CCC2 [Example 11, 1-(cyclobutylmethyl)-N-((6-methyl-5-(pyrazolo[1,5-a]pyridin-5-yl)-2,3-dihydro-1H-inden-4-yl)carbamoyl)-1H-pyrazole-3-sulfonamide] here?
A: ≤ 30 nM

Q: Cc1cc2c(c(NC(=O)NS(=O)(=O)c3cnn(C4CCC4)c3)c1-c1ccn3nccc3c1)CCC2 [Example 12, 1-cyclobutyl-N-((6-methyl-5-(pyrazolo[1,5-a]pyridin-5-yl)-2,3-dihydro-1H-inden-4-yl)carbamoyl)-1H-pyrazole-4-sulfonamide] was tested. Which IC50 did it give?
A: ≤ 30 nM

Q: For N#Cc1cc2c(c(NC(=O)NS(=O)(=O)c3cnn(CC4CC4)c3)c1-c1ccn3cncc3c1)CCC2 [Example 13, N-((6-cyano-5-(imidazo[1,5-a]pyridin-7-yl)-2,3-dihydro-1H-inden-4-yl)carbamoyl)-1-(cyclopropylmethyl)-1H-pyrazole-4-sulfonamide], which IC50 is on record?
A: ≤ 30 nM

Q: Which IC50 does the source give for Cc1cc2c(c(NC(=O)NS(=O)(=O)c3cnn(C4CC4)c3)c1-c1ccn3nccc3c1)CCC2 [Example 14, 1-cyclopropyl-N-((6-methyl-5-(pyrazolo[1,5-a]pyridin-5-yl)-2,3-dihydro-1H-inden-4-yl)carbamoyl)-1H-pyrazole-4-sulfonamide] here?
A: ≤ 30 nM

Q: With COC(c1cc(S(=O)(=O)NC(=O)Nc2c3c(cc(C)c2-c2ccn4nccc4c2)CCC3)nn1C)C1CC1 (stereo not drawn) [Example 15, 5-(cyclopropyl(methoxy)methyl)-1-methyl-N-((6-methyl-5-(pyrazolo[1,5-a]pyridin-5-yl)2,3-dihydro-1H-inden-4-yl)carbamoyl)-1H-pyrazole-3-sulfonamide] as the compound, how does the IC50 read?
A: 30 to 300 nM

Q: For Cc1cc2c(c(NC(=O)NS(=O)(=O)c3cc(C(O)C4CC4)n(C)n3)c1-c1ccn3nccc3c1)CCC2 (stereo not drawn) [Example 16, 5-(cyclopropyl(hydroxy)methyl)-1-methyl-N-((6-methyl-5-(pyrazolo[1,5-a]pyridin-5-yl)-2,3-dihydro-1H-inden-4-yl)carbamoyl)-1H-pyrazole-3-sulfonamide], which IC50 is on record?
A: ≤ 30 nM

Q: Which IC50 does the source give for Cc1cc2c(c(NC(=O)NS(=O)(=O)c3cc(CC4CC4)n(C)n3)c1-c1ccn3nccc3c1)CCC2 [Example 17, 5-(cyclopropylmethyl)-1-methyl-N-((6-methyl-5-(pyrazolo[1,5-a]pyridin-5-yl)-2,3-dihydro-1H-inden-4-yl)carbamoyl)-1H-pyrazole-3-sulfonamide] here?
A: ≤ 30 nM

Q: With Cc1cc2c(c(NC(=O)NS(=O)(=O)c3cnn(CC4CC4)c3)c1-c1ccn3ccnc3c1)CCC2 [Example 18, 1-(cyclopropylmethyl)-N-((5-(imidazo[1,2-a]pyridin-7-yl)-6-methyl-2,3-dihydro-1H-inden-4-yl)carbamoyl)-1H-pyrazole-4-sulfonamide] as the compound, how does the IC50 read?
A: ≤ 30 nM

Q: For Cc1cc2c(c(NC(=O)NS(=O)(=O)c3cnn(CC4CC4)c3)c1-c1ccc3nccn3c1)CCC2 [Example 19, 1-(cyclopropylmethyl)-N-((5-(imidazo[1,2-a]pyridin-6-yl)-6-methyl-2,3-dihydro-1H-inden-4-yl)carbamoyl)-1H-pyrazole-4-sulfonamide], which IC50 is on record?
A: ≤ 30 nM

Q: How did the IC50 turn out when Cc1cc2c(c(NC(=O)NS(=O)(=O)c3cnn(CC4CC4)c3)c1-c1ccc3cncn3c1)CCC2 [Example 20, 1-(cyclopropylmethyl)-N-((5-(imidazo[1,5-a]pyridin-6-yl)-6-methyl-2,3-dihydro-1H-inden-4-yl)carbamoyl)-1H-pyrazole-4-sulfonamide] was run?
A: 30 to 300 nM

Q: For Cc1cc2c(c(NC(=O)NS(=O)(=O)c3cnn(CC4CC4)c3)c1-c1ccc3ccnn3c1)CCC2 [Example 21, 1-(cyclopropylmethyl)-N-((6-methyl-5-(pyrazolo[1,5-a]pyridin-6-yl)-2,3-dihydro-1H-inden-4-yl)carbamoyl)-1H-pyrazole-4-sulfonamide], which IC50 is on record?
A: ≤ 30 nM
